From PubChem BioAssay (NCI)
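Cells were grown in 96-well plates and exposed to each compound for 48 hours at five concentrations; endpoints were interpolated linearly between bracketing concentrations, or set to the highest concentration if not reached. GI50: concentration for 50% inhibition of growth. At the TGI there is no net growth.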

Key:
Assay in all cases: NCI anticancer screen, dose series, 48 h
[1] = test system: 786-0 renal
[2] = test system: A498 renal
[3] = test system: A549 NSCLC
[4] = test system: ACHN renal
[5] = test system: BT-549 breast
[6] = test system: CAKI-1 renal
[7] = test system: CCRF-CEM leukemia
[8] = test system: COLO 205 colon
[9] = test system: DU-145 prostate
[10] = test system: EKVX NSCLC
[11] = test system: HCC-2998 colon
[12] = test system: HCT-116 colon
[13] = test system: HCT-15 colon
[14] = test system: HL-60(TB) leukemia
[15] = test system: HOP-62 NSCLC
[16] = test system: HOP-92 NSCLC
[17] = test system: HS 578T breast
[18] = test system: HT29 colon
[19] = test system: IGROV1 ovarian
[20] = test system: K-562 leukemia
[21] = test system: KM12 colon
[22] = test system: LOX IMVI melanoma
[23] = test system: M14 melanoma
[24] = test system: MALME-3M melanoma
[25] = test system: MCF7 breast
[26] = test system: MDA-MB-231 breast
[27] = test system: MDA-MB-435
[28] = test system: MOLT-4 leukemia
[29] = test system: NCI-H226 lung
[30] = test system: NCI-H23 lung
[31] = test system: NCI-H460 lung
[32] = test system: NCI-H522 lung
[33] = test system: NCI/ADR-RES ovarian
[34] = test system: OVCAR-3 ovarian
[35] = test system: OVCAR-4 ovarian
[36] = test system: OVCAR-5 ovarian
[37] = test system: OVCAR-8 ovarian
[38] = test system: PC-3 prostate
[39] = test system: RPMI-8226 leukemia
[40] = test system: RXF 393 renal
[41] = test system: SF-268 CNS
[42] = test system: SF-295 CNS
[43] = test system: SF-539 CNS
[44] = test system: SK-MEL-2 melanoma
[45] = test system: SK-MEL-28 melanoma
[46] = test system: SK-MEL-5 melanoma
[47] = test system: SN12C renal
[48] = test system: SNB-19 CNS
[49] = test system: SNB-75 CNS
[50] = test system: SR leukemia
[51] = test system: SW-620 colon
[52] = test system: TK-10 renal
[53] = test system: U251 CNS
[54] = test system: UACC-257 melanoma
[55] = test system: UACC-62 melanoma
[56] = test system: UO-31 renal

Structure (SMILES): CN(C)CCCNc1nc2ccccc2c2c(=O)c3cc(F)ccc3sc12
- GI50 [1]: 1470 nM
- TGI [1]: 3020 nM
- GI50 [2]: 1810 nM
- TGI [2]: 3680 nM
- GI50 [3]: 2040 nM
- TGI [3]: 4810 nM
- GI50 [4]: 1560 nM
- TGI [4]: 2920 nM
- GI50 [5]: 10100 nM
- TGI [5]: 22900 nM
- GI50 [6]: 1580 nM
- TGI [6]: 2940 nM
- GI50 [7]: 2230 nM
- TGI [7]: 5310 nM
- GI50 [8]: 2120 nM
- TGI [8]: 5030 nM
- GI50 [9]: 1680 nM
- TGI [9]: 3160 nM
- GI50 [10]: 1590 nM
- TGI [10]: 3240 nM
- GI50 [11]: 1670 nM
- TGI [11]: 3240 nM
- GI50 [12]: 1510 nM
- TGI [12]: 3190 nM
- GI50 [13]: 1650 nM
- TGI [13]: 3200 nM
- GI50 [14]: 2020 nM
- TGI [14]: 4140 nM
- GI50 [15]: 1980 nM
- TGI [15]: 4200 nM
- GI50 [16]: 1170 nM
- TGI [16]: 3960 nM
- GI50 [17]: 1660 nM
- TGI [17]: 3560 nM
- GI50 [18]: 1700 nM
- TGI [18]: 3710 nM
- GI50 [19]: 1470 nM
- TGI [19]: 2940 nM
- GI50 [20]: 2330 nM
- TGI [20]: 8350 nM
- GI50 [21]: 1740 nM
- TGI [21]: 3300 nM
- GI50 [22]: 1630 nM
- TGI [22]: 3050 nM
- GI50 [23]: 1980 nM
- TGI [23]: 3750 nM
- GI50 [24]: 1620 nM
- TGI [24]: 3050 nM
- GI50 [25]: 1130 nM
- TGI [25]: 2660 nM
- GI50 [26]: 1370 nM
- TGI [26]: 2750 nM
- GI50 [27]: 1740 nM
- TGI [27]: 3360 nM
- GI50 [28]: 2130 nM
- TGI [28]: 4480 nM
- GI50 [29]: 1710 nM
- TGI [29]: 3340 nM
- GI50 [30]: 1670 nM
- TGI [30]: 3170 nM
- GI50 [31]: 1760 nM
- TGI [31]: 3440 nM
- GI50 [32]: 1890 nM
- TGI [32]: 3980 nM
- GI50 [33]: 1620 nM
- TGI [33]: 3180 nM
- GI50 [34]: 1670 nM
- TGI [34]: 3170 nM
- GI50 [35]: 2000 nM
- TGI [35]: 4350 nM
- GI50 [36]: 1570 nM
- TGI [36]: 2950 nM
- GI50 [37]: 2090 nM
- TGI [37]: 4910 nM
- GI50 [38]: 1800 nM
- TGI [38]: 3530 nM
- GI50 [39]: 2320 nM
- TGI [39]: 5370 nM
- GI50 [40]: 1460 nM
- TGI [40]: 2910 nM
- GI50 [41]: 1530 nM
- TGI [41]: 3160 nM
- GI50 [42]: 1780 nM
- TGI [42]: 3270 nM
- GI50 [43]: 1610 nM
- TGI [43]: 3010 nM
- GI50 [44]: 2000 nM
- TGI [44]: 4070 nM
- GI50 [45]: 1760 nM
- TGI [45]: 3190 nM
- GI50 [46]: 1700 nM
- TGI [46]: 3120 nM
- GI50 [47]: 1610 nM
- TGI [47]: 3150 nM
- GI50 [48]: 1650 nM
- TGI [48]: 3080 nM
- GI50 [49]: 1330 nM
- TGI [49]: 2750 nM
- GI50 [50]: 4010 nM
- TGI [50]: > 100000 nM
- GI50 [51]: 1620 nM
- TGI [51]: 3180 nM
- GI50 [52]: 1900 nM
- TGI [52]: 3670 nM
- GI50 [53]: 1900 nM
- TGI [53]: 4410 nM
- GI50 [54]: 2080 nM
- TGI [54]: 4210 nM
- GI50 [55]: 1750 nM
- TGI [55]: 3240 nM
- GI50 [56]: 1480 nM
- TGI [56]: 2830 nM
